Tests used:
[1] = degradation time in vivo of ω-oxidation blocked analogue
From the text: ω-oxidation is believed to be the main pathway for degradation of the fatty acid analogues as described with a block in the X position. Experiments were thus performed where R′ was changed to block ω-oxidation, by introducing a triple bond at the methyl end of the fatty acid analogue. […] This is important for the use of the fatty acid analogues in pharmaceutical preparation, as it may potentiate the effects of the β-oxidizable fatty acid analogues by further slowing down their breakdown.

[2] = tested on: mitochondrial β-oxidation in the liver; experiment: activity of mitochondrial β-oxidation in the liver of fatty acid analogues; conditions: in vivo
From the text: Although all fatty acid anagoges with an odd positioning of the β-oxidation blocker X away from the carboxylic end block β-oxidation, the extent of their biological effect may be variable. This is due to the difference in biological degradation time of the various compounds. The inventors have done experiments to show the effect of moving X further from the carboxylic fatty acid end. In these experiments the activity (in nmol/min/mg/protein) of mitochondrial β-oxidation in the liver of fatty acid analogues was measured with sulphur in the 3, 5 and 7 positions relative to the carboxyl end. The activities were 0.81 for sulphur in the 3rd position, 0.61 for sulphur in the 5th position, 0.58 for sulphur in the 7th position, and 0.47 for palmitic acid, the non β-oxidation blocking control. […] However, as the decline is great for going from the 3rd to 5th position, but small going from the 5th to 7th position, it is reasonable to assume that this decline will continue to be less as one moves out the chain, and thus that it will be very far out indeed before no effect (compared to the control) is seen at all.

| SMILES | degradation time in vivo [1] | activity of mitochondrial β-oxidation in the liver [2] [nmol/min/mg/protein] |
| --- | --- | --- |
| CC#CCCCCCCCCCCCSCC [3-thia-15-heptadecyn] | substantially increased degradation time | – |
| CCCCCCCCCCCCCCCC(=O)O [palmitic acid] | – | 0.47 |

Source: US20120276212A1, “COMPOSITION COMPRISING PLANT AND/OR FISH OILS AND NON-OXIDIZABLE FATTY ACID ENTITIES” (LIFE SCIENCE NUTRITION AS, priority 2004, published 2012)
